Experimental data as given in patent publication US12605468B2, “Oxazine-based fluorophore compounds for nerve-specific imaging” (Oregon Health & Science University, priority 2020, dated 2026).

Tested on: nerve
Experiment: not given
Conditions: Park et al. Theranostics 4, 823-833 (2014); cited from earlier work

Question: With CC/N=c1/cc2oc3cc(NCC)c(C)cc3nc-2cc1C [Oxazine 4] as the compound, how does the nerve-specificity read?
Answer: The nerve-specificity was “high nerve-specificity”.

Tested on: not listed separately
Experiment: Experimental LogD measurement (1-octanol / PBS buffer partition, absorbance readout)
Type: physicochemical
Conditions: pH 7.4, room temperature, read-out: Log D7.4
Description: Experimental LogD measurements. Each screening candidate was dissolved in DMSO at a concentration of 10 mM. The stock solution was sampled (2 μL) and added to a 1 mL mixture of 1-octanol and PBS buffer (equal volume). The solution was then vortexed for 30 mins at room temperature before centrifuged at 13,000 rpm for 5 minutes. The PBS buffer and 1-octanol layers were separated and measured for absorbance using a SpectraMax M5 spectrometer with a Microplate reader (Molecular Devices, Sunnyvale, CA). Sample concentration in each phase was then calculated using Beer's Law plots of absorbance versus concentration. The experimental LogD value for each screening candidates was calculated using the equation below.

Question: For CCN(CC)c1ccc2nc3ccc(=[N+]4CCC4)cc-3oc2c1 [LGW13-79, 1-(7-(diethylamino)-3H-phenoxazin-3-ylidene)azetidin-1-ium], which logD is on record?
Answer: The logD was 0.8.

Question: Which logD does the source give for CCN1CCOc2cc3nc4ccc(=[N+]5CCC5)cc-4oc3cc21 [LGW14-42, 1-(4-ethyl-3,4-dihydro-[1,4]oxazino[2,3-b]phenoxazin-8(2H)-ylidene)azetidin-1-ium] here?
Answer: The logD was 0.5.

Question: Which logD does the source give for CN1CCOc2cc3nc4ccc(=[N+]5CCC5)cc-4oc3cc21 [LGW14-47, 1-(4-methyl-3,4-dihydro-[1,4]oxazino[2,3-b]phenoxazin-8(2H)-ylidene)azetidin-1-ium] here?
Answer: The logD was 0.1.

Question: Which logD does the source give for CC/[N+](C)=c1\ccc2nc3ccc(N4CCC4)cc3oc-2c1 [LGW14-51, (E)-N-(7-(azetidin-1-yl)-3H-phenoxazin-3-ylidene)-N-methylethanaminium] here?
Answer: The logD was 0.5.

Question: For c1cc2nc3ccc(=[N+]4CCC4)cc-3oc2cc1N1CCC1 [LGW14-53, 1-(7-(azetidin-1-yl)-3H-phenoxazin-3-ylidene)azetidin-1-ium], which logD is on record?
Answer: Its logD is 0.3.

Question: Which logD does the source give for c1cc2nc3ccc(=[N+]4CCC4)cc-3oc2cc1N1CCCC1 [LGW14-83, 1-(7-(pyrrolidin-1-yl)-3H-phenoxazin-3-ylidene)azetidin-1-ium] here?
Answer: Its logD is 0.5.
